Results on 1 molecule are retold here after BindingDB's records for doi:10.1021/jm00075a026 (Solvay Duphar, 1994).

A value given as a limit tells only on which side of the number the result lay.

In the experiment the target is T1, Glycine receptor subunit alpha-4 (Mus musculus, UniProt Q61603).
T1 sequence (Q61603 whole entry): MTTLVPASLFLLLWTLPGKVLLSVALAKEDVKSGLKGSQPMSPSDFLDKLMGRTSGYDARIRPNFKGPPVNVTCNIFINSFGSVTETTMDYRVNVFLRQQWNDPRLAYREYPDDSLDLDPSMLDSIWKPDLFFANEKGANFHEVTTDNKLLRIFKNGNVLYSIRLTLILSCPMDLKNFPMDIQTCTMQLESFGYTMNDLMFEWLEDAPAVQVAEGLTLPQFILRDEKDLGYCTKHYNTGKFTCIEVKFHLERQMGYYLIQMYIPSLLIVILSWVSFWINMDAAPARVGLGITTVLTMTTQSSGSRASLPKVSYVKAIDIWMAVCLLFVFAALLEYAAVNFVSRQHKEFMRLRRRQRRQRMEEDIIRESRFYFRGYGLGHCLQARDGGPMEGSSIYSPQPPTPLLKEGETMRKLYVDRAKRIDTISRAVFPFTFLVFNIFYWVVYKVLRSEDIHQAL
Put plainly: ChEBML_219281. As to the method: The binding affinity was measured on glycine receptor using [3H]- strychnine as radioligand.

As for `Cc1nccn1CC1CCc2c(c3ccccc3n2C)C1=O` (stereo unspecified) [NSC_68647], the Ki – broadly, a measure of affinity in units of concentration, obtained from inhibition or displacement – was > 10 µM.
